16 compounds from patent US20190352276A1, “INHIBITORS OF BRUTON'S TYROSINE KINASE” (Joint Stock Company "Biocad", priority 2016, published 2019) can be followed below.

Where only a bound is given, the exact number is not on record here.

Usually IC50 stands for the concentration that gives 50% inhibition. As usually defined, the CC50 is the concentration that lowers cell viability or growth by half. The low end stands for greater toxicity to the cells, the high end for lower toxicity to the cells.

The subject of series [1] is Mino (mantle cell lymphoma). In words: Antiproliferative activity, Mino cells (Alamar Blue). The format is cell-based. To be noted: Homo sapiens, Table 10, 72 h, average of several tests. The procedure: (§1) Antiproliferative activity of BTK inhibitors was measured in cell-based bioassay on B-cells cultures: Mino (mantle cell lymphoma, ATCC® CRL-3000™), Z-138 (mantle cell lymphoma, ATCC® CRL-3001™) and DOHH2 (follicular lymphoma, Creative Bioarray CSC-C0219) using cell viability reagent Alamar Blue (Invitrogen, #DAL 1100). Cells were cultured in 10% FB S-supplemented (HyClone, #SH3008803/Gibco, #16140-071) RPMI-1640 (PanEco, #S330p) for at least 1 passage after thawing, washed with PBS and passaged in 96-well culture plates (Corning, #3599) with growth medium with 10% FBS (HyClone, #SH3008803/Gibco, #16140-071) and antibiotic (50 μg/ml of gentamicin (Biolot, #1.3.16))≈3*10^4 cells in 50 μl of medium per well.
(§2) The compounds were dissolved in DMSO and diluted with the assay medium to final concentrations ranging from […]. 150 μl of each diluted compound were then added to each well (final concentration of DMSO was less than 1%) and incubated at 37° C. in an incubator under 5% of CO2 for 72 h. After incubation, 20 μl of Alamar Blue reagent (Invitrogen, #DAL1100) were added to each well. The plates were shaked on an orbital shaker (Biosan, Latvia) and then incubated for 14-16 hours at 37° C. in the incubator.
(§3) The number of living cells were estimated, measuring the fluorescence signal at the excitation wavelength (REx) of 540 nm and the emission wavelength (λEm) of 590 nm on a microplate reader (Tecan Infinite M200Pro, Switzerland).
(§4) For each compound, IC50 was calculated using Magellan 7.2 software (Tecan, Switzerland) approximating experimental points by four-parameter logistic model with the optimization by Levenberg-Marquardt.
In general terms: Resazurin is reduced to fluorescent resorufin, in cell work by metabolically active cells.

Series [2] is described as follows: Stability in human blood plasma. To be noted: 10 μM in pooled human blood plasma, incubated 4 hours at 37° C.
Series [3] in a line: General cytotoxicity on HepG2 cells (CC50; therapeutic index CC50 HepG2/IC50 Mino). It is filed as cell-based. To be noted: human, HepG2 cells (hepatocellular carcinoma); Table 10; 72 hours, Alamar Blue; average of several tests. The procedure: (§5) The CC50 values were determined in the test for General cytotoxicity on HepG2 cells (hepatocellular carcinoma, ATCC® HB-8065™). 2*10^4 cells (in 50 μl) per well were seeded in 96-well plates (Corning, #3599) in DMEM medium (PanEco, #S420p), after 24 h of incubation 150 μl of candidate compounds were added to each well in the range of final concentrations from 200 μM to 4 μM and the plate was incubated in a total volume of 200 μl for 72 hours. Viability of the cells was assessed using Alamar Blue dye (Invitrogen, #DAL 1100). CC50 was determined similarly (table 10).
(§6) The relationship between toxic (CC50) and a therapeutic (IC50) effects of the dose is the therapeutic index, which can be expressed as the ratio between CC50 (HepG2) (general cytotoxicity of the candidate) and IC50 (Mino) (antiproliferative activity on the target cells): […]

In series [4] the test system is HepG2 cells (hepatocellular carcinoma). The description is as above. To be noted: Table 10; therapeutic index. It is filed as cell-based. The procedure: as §5, §6
Series [5] deals with Z-138 (mantle cell lymphoma). The series can be described thus: Antiproliferative activity, Z-138 cells (Alamar Blue). The format is cell-based. To be noted: Homo sapiens, Table 10, 72 h, average of several tests. The protocol: as §1, §2, §3, §4
Series [6] is described as follows: Chemical stability in artificial gastric fluid (SGF without enzymes). To be noted: 10 μM in SGF without enzymes, pH=1.4, 37° C.

On to `C=CC(=O)N1CCC[C@@H](n2nc(-c3ccc(C(=O)Nc4ccc(F)cn4)cc3)c3cncc(Cl)c32)C1` [BCD-BTK-212, (R)-4-(1-(1-acryloylpiperidin-3-yl)-7-chloro-1H-pyrazolo[4,3-c]pyridin-3-yl)-N-(5-fluoropyridin-2-yl)benzamide], for which the IC50 is 3.5 µM in series [1] and 14.8 µM in series [5]. In addition, the “Amount of substance in the sample, % (stability in human blood plasma)” value (“Amount of substance in the sample, %” below) in series [2] is recorded as 90.8%. This compound also had a CC50 at 72 h in series [3] of 28.1 µM. In series [4], the “CC50 (HepG2)/IC50 (Mino)” value amounted to 8.01.

For the compound `CC#CC(=O)N1CCC[C@H](Cn2nc(-c3ccc(C(=O)Nc4ccccn4)cc3)c3cncc(Cl)c32)C1` [BCD-BTK-283, (S)-4-(1-((1-(but-2-ynoyl)piperidin-3-yl)methyl)-7-chloro-1H-pyrazolo[4,3-c]pyridin-3-yl)-N-(pyridin-2-yl)benzamide], in series [6], the “Amount of substance in the sample in % (chemical stability)” value (“Amount of substance in the sample in %” for short) is reported as 100%. Further, in series [2], the “Amount of substance in the sample, %” value turned out to be 97.4%.

With `CC#CC(=O)N1CC(Cn2nc(-c3ccc(C(=O)Nc4ccccn4)cc3)c3cncc(Cl)c32)C1` [BCD-BTK-267, 4-(1-((1-(but-2-ynoyl)azetidin-3-yl)methyl)-7-chloro-1H-pyrazolo[4,3-c]pyridin-3-yl)-N-(pyridin-2-yl)benzamide], the “Amount of substance in the sample in %” value in series [6] was determined as 100%. In addition, the “Amount of substance in the sample, %” value in series [2] worked out at 100.0%.

Take `CC#CC(=O)N1CCC[C@@H]1Cn1nc(-c2ccc(C(=O)Nc3ccccn3)cc2)c2cncc(Cl)c21` [BCD-BTK-269, (R)-4-(1-((1-(but-2-ynoyl)pyrrolidin-2-yl)methyl)-7-chloro-1H-pyrazolo[4,3-c]pyridin-3-yl)-N-(pyridin-2-yl)benzamide]: the “Amount of substance in the sample in %” value in series [6] is 100%. The “Amount of substance in the sample, %” value in series [2] is 95.4%.

`C=CC(=O)N1CCC[C@@H](n2nc(-c3ccc(-n4ccc(=O)c(C#N)c4)cc3)c3cncc(Cl)c32)C1` [BCD-BTK-208, (R)-1-(4-(1-(1-acryloylpiperidin-3-yl)-7-chloro-1H-pyrazolo[4,3-c]pyridin-3-yl)phenyl)-4-oxo-1,4-dihydropyridine-3-carbonitrile]: the IC50 came to 21.5 µM in series [1] and 32.2 µM in series [5]. In addition, in series [2], the “Amount of substance in the sample, %” value is listed as 91.4%. Besides, in series [3], the midpoint of cytotoxicity, the CC50 at 72 h, lay at 112 µM. Moreover, the “CC50 (HepG2)/IC50 (Mino)” value in series [4] is 5.21.

For the compound `CC#CC(=O)N1CC[C@@H](n2nc(-c3ccc(Oc4ccncc4)cc3)c3cncc(Cl)c32)C1` [BCD-BTK-265, (R)-1-(3-(7-chloro-3-(4-(pyridin-4-yloxy)phenyl)-1H-pyrazolo[4,3-c]pyridin-1-yl)pyrrolidin-1-yl)but-2-yn-1-one], the “Amount of substance in the sample in %” value in series [6] amounted to 94.8%. The results for the 50% inhibitory concentration (IC50) in series [1] and in series [5] were 7.91 µM and 16.6 µM, respectively. The “Amount of substance in the sample, %” value in series [2] is reported as 81.7%. Also, the CC50 at 72 h in series [3] was 16.5 µM. The “CC50 (HepG2)/IC50 (Mino)” value in series [4] is recorded as 2.09.

Take `C=CC(=O)N1CCC[C@@H](n2nc(-c3ccc(C(=O)Nc4ccc(F)cn4)cc3)c3c(N)ncc(Cl)c32)C1` [BCD-BTK -237, 4-{4-amino-7-chloro-1-[(3R)-1-(prop-2-enoyl)piperidin-3-yl]-1H-pyrazolo[4,3-c]pyridin-3-yl}-N-(5-fluoropyridin-2-yl)benzamide]: the “Amount of substance in the sample in %” value in series [6] was 100%. Moreover, in series [2], the “Amount of substance in the sample, %” value came out at 95.5%.

Consider `CC#CC(=O)N1CCC[C@@H](n2nc(-c3ccc(C(=O)Nc4ccccn4)cc3)c3cncc(Cl)c32)C1` [BCD-BTK-289, (R)-4-(1-(1-(but-2-ynoyl)piperidin-3-yl)-7-chloro-1H-pyrazolo[4,3-c]pyridin-3-yl)-N-(pyridin-2-yl)benzamide], for which the “Amount of substance in the sample in %” value in series [6] is listed as 100%. Besides, the half-maximal inhibitory concentration (IC50) in series [1] came out at 10.2 µM; in series [5], 8.29 µM. For the same compound, in series [2], the “Amount of substance in the sample, %” value was found to be 100.0%. The same compound displayed a CC50 at 72 h in series [3] of 18.8 µM. For the same compound, the “CC50 (HepG2)/IC50 (Mino)” value in series [4] worked out at 1.85.

Regarding `C=CC(=O)N1CCC[C@H]1Cn1nc(-c2ccc(Oc3ccncc3)cc2)c2cncc(Cl)c21` [BCD-BTK-263, (S)-1-(2-((7-chloro-3-(4-(pyridin-4-yloxy)phenyl)-1H-pyrazolo[4,3-c]pyridin-1-yl)methyl)pyrrolidin-1-yl)prop-2-en-1-one], the “Amount of substance in the sample in %” value in series [6] is on record as 100%. For the same compound, the IC50 worked out at 20.6 µM in series [1] and 35.2 µM in series [5]. Further, in series [2], the “Amount of substance in the sample, %” value was 86.7%. The CC50 at 72 h in series [3] is above 50 µM. The “CC50 (HepG2)/IC50 (Mino)” value in series [4] is reported as above 2.42.

For the compound `C=CC(=O)N1CCC[C@@H](n2nc(-c3ccc(C(=O)Nc4cc(C(F)(F)CCC)ccn4)cc3)c3cncc(F)c32)C1` [BCD-BTK -247, (R)-4-(1-(1-acryloylpiperidin-3-yl)-7-fluoro-1H-pyrazolo[4,3-c]pyridin-3-yl)-N-(4-(1,1-difluorobutyl)pyridin-2-yl)benzamide], in series [6], the “Amount of substance in the sample in %” value is reported as 100%. In addition, in series [2], the “Amount of substance in the sample, %” value is recorded as 87.3%.

Regarding `C=CC(=O)N1CCC[C@@H](n2nc(-c3ccc(Oc4cncc(C(N)=O)c4)cc3)c3cncc(F)c32)C1` [BCD-BTK-274, (R)-5-(4-(1-(1-acryloylpiperidin-3-yl)-7-fluoro-1H-pyrazolo[4,3-c]pyridin-3-yl)phenoxy)nicotinamide], the “Amount of substance in the sample in %” value in series [6] was 100%. Also, the IC50 in series [1] was 40.1 µM; in series [5], above 100 µM. In series [2], the “Amount of substance in the sample, %” value was 91.3%. The same compound displayed a CC50 at 72 h in series [3] of 38 µM. Further, the “CC50 (HepG2)/IC50 (Mino)” value in series [4] worked out at 0.95.

Take `C=CC(=O)N1CCC[C@@H](n2nc(-c3cnc(-n4ccc(=O)c(C#N)c4)nc3)c3cncc(Cl)c32)C1` [BCD-BTK-206, (R)-1-(5-(1-(1-acryloylpiperidin-3-yl)-7-chloro-1H-pyrazolo[4,3-c]pyridin-3-yl)pyrimidin-2-yl)-4-oxo-1,4-dihydropyridine-3-carbonitrile]: the “Amount of substance in the sample, %” value in series [2] is reported as 87.6%.

Turning to `C=CC(=O)N1CCC[C@@H](n2nc(-c3cnc(C(=O)Nc4cc(C(F)(F)CC)ccn4)nc3)c3cncc(Cl)c32)C1` [BCD-BTK -293, (R)-5-(1-(1-acryloylpiperidin-3-yl)-7-chloro-1H-pyrazolo[4,3-c]pyridin-3-yl)-N-(4-(1,1-difluoropropyl)pyridin-2-yl)pyrimidine-2-carboxamide], in series [2], the “Amount of substance in the sample, %” value is on record as 85.7%.

Take `CC#CC(=O)N1CCC[C@@H](Cn2nc(-c3ccc(C(=O)Nc4ccccn4)cc3)c3cncc(Cl)c32)C1` [BCD-BTK-278, (R)-4-(1-((1-(but-2-ynoyl)piperidin-3-yl)methyl)-7-chloro-1H-pyrazolo[4,3-c]pyridin-3-yl)-N-(pyridin-2-yl)benzamide]: the “Amount of substance in the sample in %” value in series [6] is 100%. Besides, the “Amount of substance in the sample, %” value in series [2] is reported as 96.2%.

Regarding `C=CC(=O)N1CCC[C@@H](n2nc(-c3cnc(C(=O)Nc4cc(C(F)(F)CCC)ccn4)nc3)c3cncc(Cl)c32)C1` [BCD-BTK -292, (R)-5-(1-(1-acryloylpiperidin-3-yl)-7-chloro-1H-pyrazolo[4,3-c]pyridin-3-yl)-N-(4-(1,1-difluorobutyl)pyridin-2-yl)pyrimidine-2-carboxamide], the “Amount of substance in the sample, %” value in series [2] is 93.3%.

In the case of `CC#CC(=O)N1CCC[C@@H](n2nc(-c3ccc(C(=O)Nc4ccccn4)cc3)c3c(N)ncc(Cl)c32)C1` [BCD-BTK -295, (R)-4-(4-amino-1-(1-(but-2-ynoyl)piperidin-3-yl)-7-chloro-1H-pyrazolo[4,3-c]pyridin-3-yl)-N-(pyridin-2-yl)benzamide], the “Amount of substance in the sample, %” value in series [2] worked out at 100.0%.
